Reference: publication PMC4793717 (Pharmacology, 2013)
“Also recorded” adds a separate entry of the source. Read-outs that look alike come from different tables or passages of the source.

Legend:
[1] = In vitro Caco-2 permeability assay; type: in vitro ADME; settings: human, Caco-2
Caco-2 = experiment: In vitro Caco-2 permeability assay; type: in vitro ADME; settings: test conc. 10 μmol/l, 2 h
TrkB receptor [2] = settings: cited from earlier work
[3] = In vivo pharmacokinetic study of 7,8-DHF, plasma and brain by HPLC-MS/MS; parameters: species or system CD-1 mice; settings: for half-life: T1/2, plasma
TrkB [4] = target: T1, TrkB (Mus musculus, UniProt P15209); experiment: TrkB activation in mouse brain after oral gavage; type: in vivo, C57BL/6J mice; settings: 5 mg/kg oral gavage, brain collected at 2 h
Akt = experiment: p-Akt ELISA of mouse brain samples; type: in vivo, C57BL/6J mice; settings: for p-Akt versus control in entacapone-treated and tolcapone-treated groups (ELISA): COMT inhibitor 30 mg/kg pretreatment, flavonoid 5 mg/kg
TrkB receptor [5] = target: T2, TrkB receptor (Rattus norvegicus, UniProt Q63604); settings: cited from earlier work
TrkB [6] = target: T1, TrkB; settings: oral administration, at 2 or 4 h; cited from earlier work
mice [7] = settings: cited from earlier work
dentate gyrus [8] = settings: chronic treatment; cited from earlier work
[9] = chronic treatment, dose of 5 mg/kg; cited from earlier work
TrkB receptor [10] = target: T2, TrkB receptor; experiment: TrkB activation in primary cortical neurons; type: cell-based; settings: for TrkB activation in primary neurons (p-TrkB Y816): 500 nmol/l, 15 min, primary cortical neurons
mice [11] = experiment: Forced swim test; type: in vivo, C57BL/6J mice; settings: 5 mg/kg orally once a day for 21 days
mice [12] = experiment: Tail suspension test; type: in vivo, C57BL/6J mice; settings: 5 mg/kg orally once a day for 21 days
dentate gyrus [13] = experiment: Neurogenesis assay via BrdU incorporation in the dentate gyrus; type: in vivo, C57BL/6J mice; settings: 5 mg/kg orally for 21 days
TrkB [14] = target: T1, TrkB; experiment: Immunohistochemistry staining of p-TrkB in the dentate gyrus; type: in vivo, mice; settings: 5 mg/kg orally for 21 days
[15] = male, CD-1, mouse, plasma, po, 50 mg/kg
[16] = male, CD-1, mouse, plasma, po, 50 mg/kg, mice, after 7,8-DHF p.o. 50 mg/kg
[17] = mice, after 7,8-DHF p.o. 50 mg/kg

T2 sequence (Q63604 32-821): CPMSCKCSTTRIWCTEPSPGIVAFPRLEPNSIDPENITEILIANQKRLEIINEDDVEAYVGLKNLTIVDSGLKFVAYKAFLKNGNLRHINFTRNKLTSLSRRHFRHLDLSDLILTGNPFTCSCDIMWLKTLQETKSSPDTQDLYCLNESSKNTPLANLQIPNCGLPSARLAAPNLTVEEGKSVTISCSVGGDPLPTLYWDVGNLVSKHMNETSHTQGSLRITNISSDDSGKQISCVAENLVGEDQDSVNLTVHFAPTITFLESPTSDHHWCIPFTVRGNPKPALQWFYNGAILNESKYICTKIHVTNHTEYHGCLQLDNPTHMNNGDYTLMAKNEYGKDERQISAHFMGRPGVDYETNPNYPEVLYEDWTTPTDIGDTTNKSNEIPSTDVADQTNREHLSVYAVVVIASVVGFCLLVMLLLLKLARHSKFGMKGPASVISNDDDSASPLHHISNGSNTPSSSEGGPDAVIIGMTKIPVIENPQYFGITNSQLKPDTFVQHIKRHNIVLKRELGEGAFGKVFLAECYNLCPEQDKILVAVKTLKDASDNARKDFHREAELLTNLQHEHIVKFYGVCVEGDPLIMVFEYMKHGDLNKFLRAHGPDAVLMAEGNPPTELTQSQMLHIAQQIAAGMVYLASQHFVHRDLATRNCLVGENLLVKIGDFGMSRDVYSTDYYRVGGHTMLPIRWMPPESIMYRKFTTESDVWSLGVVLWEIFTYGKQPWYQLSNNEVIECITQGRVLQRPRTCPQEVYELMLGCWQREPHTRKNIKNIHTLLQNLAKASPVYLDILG
T1 sequence (P15209 32-821): as the sequence (Q63604 32-821) above, with M3T, T9S, T10A, I32V, K63R, G84S, T153M, I185L, T394S, N770S counted along it

Molecule: CNC(=C[N+](=O)[O-])NCCSCc1ccc(CN(C)C)o1 [Ranitidine, reference compound]
- Papp A→B at 2 h, 10 μmol/l [1]: 0.3 ×10⁻⁶ cm/s
- Papp B→A at 2 h, 10 μmol/l [1]: 2.9 ×10⁻⁶ cm/s
- efflux ratio at 2 h, 10 μmol/l [1]: 10.9
- Comment (Caco-2 permeability) (Caco-2): low permeability, efflux

Molecule: O=c1cc(-c2ccccc2)oc2ccc(O)c(O)c12 [5,6-dihydroxyflavone]
- TrkB agonistic effect (TrkB receptor [2]): but not 5,6-dihydroxyflavone or 5,7-dihydroxyflavone possess a TrkB agonistic effect

Molecule: O=c1cc(-c2ccccc2)oc2c(O)c(O)ccc12 [7,8-DHF, 7,8-Dihydroxyflavone]
- brain concentration of parent compound relative to methylated metabolite ([3]; brain, mice, after 7,8-DHF p.o. 50 mg/kg): approximately 30 fold
- Cmax ([3]; male, CD-1, mouse, brain, po, 50 mg/kg): 70 ng/mL
- AUC(0-inf) [3, 15]: 125 ng·h/mL
- AUC(0-t) [3, 15]: 108 ng·h/mL
- Cmax [3, 15]: 70 ng/mL
- Tmax [3, 15]: 0.167 h
- half-life [3, 16]: ~2.23 h
- brain concentration at 6 h [3, 17]: below the quantitative limit
- penetration of the brain-blood barrier ([3]; mice, oral dosing of 50 mg/kg 7,8-DHF): can penetrate the brain-blood barrier
- Papp A→B at 2 h, 10 μmol/l [1]: 1.5 ×10⁻⁶ cm/s
- Papp B→A at 2 h, 10 μmol/l [1]: 1.7 ×10⁻⁶ cm/s
- efflux ratio at 2 h, 10 μmol/l [1]: 1.2
- Comment (Caco-2 permeability) (Caco-2): poor recovery A to B
- TrkB activation in mouse brain (p-TrkB Y816) (TrkB [4]): clearly activated the TrkB receptor compared to vehicle control; also recorded: obviously activated TrkB compared to vehicle control
- p-Akt versus control in entacapone-treated and tolcapone-treated groups (ELISA) (Akt): no significant changes
- concentration at which TrkB phosphorylation was prominent (TrkB receptor [5]): 100 nmol/L
- TrkB activation in mouse brain (TrkB [6]): evidently activates the TrkB receptor in mouse brain
- latency of immobility (mice [7]; acute injection): has no effect on the latency of immobility
- immobility in FST (mice [7]; chronic treatment): robustly decreased the immobility in FST after chronic treatment
- immobility in FST (mice [7]; subchronic intraperitoneal injection): significantly decreases immobility in FST
- neurogenesis in the dentate gyrus (dentate gyrus [8]): enhances neurogenesis in the dentate gyrus
- toxicity [9]: reveals no demonstrable toxicity

Molecule: CC(=O)CC(c1ccccc1)c1c(O)c2ccccc2oc1=O (centres unmarked) [Warfarin, reference compound]
- Papp A→B at 2 h, 10 μmol/l [1]: 52.6 ×10⁻⁶ cm/s
- Papp B→A at 2 h, 10 μmol/l [1]: 18.3 ×10⁻⁶ cm/s
- efflux ratio at 2 h, 10 μmol/l [1]: 0.3
- Comment (Caco-2 permeability) (Caco-2): high permeability control

Molecule: O=c1cc(-c2ccccc2)oc2cc(O)cc(O)c12 [5,7-dihydroxyflavone]
- TrkB agonistic effect (TrkB receptor [2]): but not 5,6-dihydroxyflavone or 5,7-dihydroxyflavone possess a TrkB agonistic effect

Molecule: O=c1cc(-c2ccccc2)oc2cc(O)c(O)cc12 [6,7-dihydroxyflavone]
- TrkB agonistic effect (TrkB receptor [2]): possess a TrkB agonistic effect

Molecule: COc1ccc2c(=O)cc(-c3ccccc3)oc2c1OC [D024]
- TrkB activation in mouse brain (p-TrkB Y816) (TrkB [4]): elicited TrkB activation (p-TrkB Y816), but the effect was not as strong as that of the other two compounds
- p-TrkB 706 immunoblotting in mouse brain (TrkB [4]): elicited the strongest p-TrkB signal

Molecule: COc1c(O)ccc2c(=O)cc(-c3ccccc3)oc12 [8-methoxy-metabolite, 7-hydroxy-8-methoxyflavone]
- half-life [3, 16]: 2.47 h
- earliest observation in brain [3, 17]: 3 min

Molecule: COc1ccc2c(=O)cc(-c3ccccc3)oc2c1O [H428, 7-methoxy-8-hydroxyflavone]
- half-life [3, 16]: 1.53 h
- earliest detection in plasma [3, 17]: 3 min
- plasma concentration at 6 h [3, 17]: below the quantitative limit
- detection in mouse brain at any time ([3]; mice, after 7,8-DHF p.o. 50 mg/kg, 50 mg/kg): below the limit of quantification
- TrkB activation in primary neurons (p-TrkB Y816) (TrkB receptor [10]): activates the TrkB receptor in primary neurons
- TrkB activation in mouse brain (p-TrkB Y816) (TrkB [4]): clearly activated the TrkB receptor compared to vehicle control
- immobility in FST (mice [11]): strongest effect
- immobility in TST (mice [12]): substantially decreased the immobility
- neurogenesis (BrdU-positive cells in the dentate gyrus) (dentate gyrus [13]): significantly promoted neurogenesis compared to vehicle
- TrkB phosphorylation in the dentate gyrus (immunohistochemistry) (TrkB [14]): strongly provoked TrkB phosphorylation in the dentate gyrus

Molecule: O=c1cc(-c2cccc(O)c2)oc2cc(O)c(O)cc12 [6,7,3′-trihydroxyflavone]
- TrkB agonistic effect (TrkB receptor [2]): possess a TrkB agonistic effect

Molecule: CN(C)c1ccc(-c2cc(=O)c3ccc(O)c(O)c3o2)cc1 [4′-DMA-7,8-DHF, 4′-dimethylamino-7,8-DHF]
- Comment (Caco-2 permeability) (Caco-2): poor recovery A to B
- Mean A→B Papp (Caco-2): 0.9 10^−6 cm•s^−1
- Mean B→A Papp (Caco-2): 3.1 10^−6 cm•s^−1
- Efflux ratio (Caco-2; >2 indicates significant efflux activity): 3.6
- TrkB activation in primary neurons (p-TrkB Y816) (TrkB receptor [10]): more robust TrkB agonistic activity than 7,8-DHF; also recorded: activated TrkB receptor signaling pathways in primary neurons
- TrkB activation in mouse brain (p-TrkB Y816) (TrkB [4]): obviously activated TrkB compared to vehicle control
- Akt activation in mouse brain (p-Akt ELISA) (Akt; 1 mg/kg oral, 2 h): potently activated Akt
- p-Akt versus control in entacapone-treated and tolcapone-treated groups (ELISA) (Akt): no significant changes
- TrkB activation in mouse brain (TrkB [6]): evidently activates the TrkB receptor in mouse brain
- immobility in FST (mice [7]; chronic treatment): robustly decreased the immobility in FST after chronic treatment

B1: BDNF: Brain-derived neurotrophic factor, member of the neurotrophin family; positive control from Roche (protein, UniProt P23560 19-247, looked up)
Neurotrophic factor BDNF …: APMKEANIRGQGGLAYPGVRTHGTLESVNGPKAGSRGLTSLADTFEHVIEELLDEDQKVRPNEENNKDADLYTSRVMLSSQVPLEPPLLFLLEEYKNYLDAANMSMRVRRHSDPARRGELSVCDSISEWVTAADKKTAVDMSGGTVTVLEKVPVSKGQLKQYFYETKCNPMGYTKEGCRGIDKRHWNSQCRTTQSYVRALTMDSKKRIGWRFIRIDTSCVCTLTIKRGR
- concentration eliciting TrkB activation (TrkB receptor [10]; titration assay in primary neurons): 1 to 30 nmol/L
